Entries after “also recorded” stand apart in the source; their conditions may differ.
How the values were obtained:
[1] = cited from earlier work
E. coli β-glucuronidase = target: T1, E. coli β-glucuronidase (Escherichia coli, UniProt P05804); experiment: Inhibition of E. coli β-glucuronidase cleavage of diclofenac 1-β-O-acyl glucuronide (HPLC-UV of DCF product); format: biochemical
T1 construct: made in house

[2] = mouse, in vivo, ip, 60 mg/kg
[3] = Pharmacokinetic profiling of diclofenac in mice with or without Inh-1 pretreatment; settings: male, C57BL/6, mouse, in vivo, ip, 60 mg/kg
in vivo = settings: male, C57BL/6, mouse, 60 mg/kg
[4] = system: DCF-induced small intestinal ulceration; experiment: Diclofenac-induced small intestinal ulceration in mice (NBT staining, morphometry, histopathology); format: in vivo
Text: Male C57BL/6J mice were obtained from The Jackson Laboratory (Bar Harbor, Me.). The mice were acclimatized for three weeks before the experiments and were 10-12 weeks of age at the start of the experiments. The animals were kept on a 14:10-hour light:dark cycle. They received mouse chow (Teklad Global Rodent Diet, Harlan Laboratories, Boston, Mass.) and water ad libitum. All studies were approved by the Institutional Animal Care and Use Committee of the University of Connecticut. […] All animals were treated at five hours before the start of the dark cycle. […] Control animals received methyl cellulose and/or Solutol HS-15.
(§1) Enteropathy was assessed and graded as described previously (Ramirez-Alcantara et al., Am. J. Physiol. (Gastrointest. Liver Physiol.), 297:G990-G998 (2009)). Briefly, mice were sacrificed by CO2 inhalation at 18 hours post-DCF (when the development of mucosal injury was maximal). A midline incision was made and blood was obtained via cardiac puncture. Serum was prepared and frozen at −80° C. until use for analysis. The entire small intestine (from the gastroduodenal junction to the ileocecal junction) was removed and opened longitudinally along the anti-mesenteric side. The tissue was rinsed in cold PBS and incubated for 15 minutes in 1 mM nitroblue tetrazolium (NBT) solution containing 16 mM HEPES-NaOH, 125 mM NaCl buffer, 3.5 mM KCl, and 10 mM glucose. Next, the tissues were fixed in 10% zinc formalin for 24 hours, washed, and transferred to 70% ethanol. The intestine was metrically divided into four quartiles of equal length and evaluated at 10× magnification for quantitative and qualitative analysis of mucosal injury, and the lesions were assigned to the respective quartiles. The following scoring system was used: 0, no apparent lesions; 1, small erosions or ulcers (<0 1 mm); 2, medium ulcers (0.1-0.8 mm); 3, large confluent ulcers (>0.8 mm) In addition, the total area of the lesions was quantified by Image J software. The formalin-fixed tissue was embedded in paraffin, and 5-μm sections were stained with hematoxylin/eosin for histopathological evaluation. Serum activity of alkaline phosphatase (ALP) was measured with a kinetic colorimetric kit (BioAssay Systems, Hayward, Calif.).

[5] = humans, cited from earlier work
[6] = system: serum alkaline phosphatase (ALP) activity; experiment: Serum alkaline phosphatase activity as biomarker of enteropathy; format: in vivo, mice; settings: Inh-1 pretreatment; 18 h post-DCF
Procedure: as §1, with “(Ramirez-[…]” for “(Ramirez-Alcantara”, “297:[…]-[…]” for “297:G990-G998”, “-80°” for “−80°”, “Next, the tissues were fixed in 10% zinc formalin for 24 hours, washed, and transferred to 70% ethanol.” left out, “The following scoring system was used: 0, no apparent lesions; 1, small erosions or ulcers (<0 1 mm); 2, medium ulcers (0.1-0.8 mm); 3, large confluent ulcers (>0.8 mm) In addition, the total area of the lesions was quantified by Image J software.” left out

T1 sequence (P05804 whole entry): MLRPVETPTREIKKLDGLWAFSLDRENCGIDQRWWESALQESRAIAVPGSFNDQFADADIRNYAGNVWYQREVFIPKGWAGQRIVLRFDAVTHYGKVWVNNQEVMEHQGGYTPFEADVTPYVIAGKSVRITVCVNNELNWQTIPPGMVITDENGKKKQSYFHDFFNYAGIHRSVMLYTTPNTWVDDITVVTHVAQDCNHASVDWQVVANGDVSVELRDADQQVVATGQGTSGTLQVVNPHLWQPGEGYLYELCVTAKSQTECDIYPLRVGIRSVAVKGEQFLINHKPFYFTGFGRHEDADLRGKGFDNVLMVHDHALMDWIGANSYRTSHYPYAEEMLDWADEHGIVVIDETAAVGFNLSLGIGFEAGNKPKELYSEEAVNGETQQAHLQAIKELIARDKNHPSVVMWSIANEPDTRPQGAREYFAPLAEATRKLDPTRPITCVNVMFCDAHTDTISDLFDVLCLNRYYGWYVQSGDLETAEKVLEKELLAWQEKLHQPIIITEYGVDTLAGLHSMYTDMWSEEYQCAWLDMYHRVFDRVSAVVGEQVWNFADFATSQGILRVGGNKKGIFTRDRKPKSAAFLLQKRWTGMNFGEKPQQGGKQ

## O=C(Cc1ccccc1Nc1c(Cl)cccc1Cl)O[C@@H]1O[C@H](C(=O)O)[C@@H](O)[C@H](O)[C@H]1O [DCF-AG, diclofenac 1-β-O-acyl glucuronide]
[1]; gallbladder-cannulated mice
  amount of biliary DCF-AG relative to parent DCF: 117 fold
  amount of biliary DCF-AG relative to ring-hydroxylated DCF: 22 fold
[1]; mice
  amount of DCF-AG in bile: approximately 4 % of the dose
E. coli β-glucuronidase; various concentrations, data not shown
  conversion of DCF-AG to its aglycone by purified enzyme (substrate): converted DCF-AG (various concentrations) to its aglycone

## O=C(O)Cc1ccccc1Nc1c(Cl)cccc1Cl [Diclofenac, diclofenac]
[1]; during 60 minutes after intravenous 5 mg/kg in mice
  [14C]-DCF equivalents appearing in bile: 42%
[2]
  apparent Cmax: high micromolar range
[3]
  half-life: 169 min
In vivo
  Tmax: 9.6 min
In vivo; ip
  AUC(0-t): 208 µg·h/mL
  Cmax: 265 µg/mL
  Tmax: 10 min
[4]; DCF 60 mg/kg ip, single dose, 18 h
  small intestinal ulceration caused by DCF alone: developed typical nitroblue tetrazolium-(NBT-) positive areas of ulceration in the jejunum and ileum
[5]; including AGs of 4′-hydroxy-DCF
  total DCF clearance in the form of glucuronides: approximately 75%
[5]; initial studies
  DCF excreted via bile: 10-20%

## CCOc1ccc(NC(=S)N(CCO)Cc2cc3cc(C)cc(C)c3[nH]c2=O)cc1 [Inh-1, ((6,8-dimethyl-2-oxo-1,2-dihydroquinolin-3-yl)methyl)-3-(4-ethoxyphenyl)-1-(2-hydroxyethyl)thiourea]
E. coli β-glucuronidase; increasing Inh-1 concentrations, DCF-AG 4 mM, FIG. 1B
  inhibition of product (free DCF) formation: concentration-dependent inhibition of product formation
E. coli β-glucuronidase; read-out: inhibition of release of free DCF from DCF-AG
  inhibition at 100 µM: > 90%
[4]; Inh-1 10 μg/mouse po b.i.d. x2 days before DCF 60 mg/kg ip, 18 h post-DCF
  ulcer size and number, quartiles 3 and 4: greatly reduced both in size and number
[4]; Inh-1 pretreatment plus DCF 60 mg/kg ip
  histopathology: ulcers with loss of villi and inflammatory response: largely prevented these changes
[4]; Inh-1 pretreatment plus DCF 60 mg/kg ip, jejunum, 18 h
  NBT-positive areas of ulceration, macroscopic: absence of any large ulceration; also recorded: only few isolated and small NBT-positive areas
[4]; mice, overall conclusion
  protection from DCF-induced acute small intestinal injury: significant protection
[6]
  DCF-associated decrease in serum alkaline phosphatase (ALP) activity: largely prevented

— patent publication US20150011542A1, “Methods of Treating Adverse Intestinal Effects of Non-Steroidal Anti-Inflammatory Drugs” (University of Connecticut, priority 2012, published 2015)
